Strand notation (5' to 3'): a small letter for the sugar, then the base; units joined by * are phosphorothioate-linked, units joined directly phosphodiester-linked; [ ] holds rarer units or linkages, { } end groups; capitals alone tell only the bases. e = 2'-O-(2-methoxyethyl) (MOE); k = constrained ethyl (cEt); [5mC] = 5-methylcytosine; d = 2'-deoxy (DNA); m = 2'-O-methyl
System: Yap1 mRNA
Test: Dose-dependent inhibition of human Yap1 in SNU-449 cells (Example 9, RTS36584)
Type: cell-based
Conditions: free uptake; for % UTC (Yap1 mRNA): approximately 48 hours; for IC50: linear regression on a log/linear plot
Protocol: Modified oligonucleotides described in the studies above were tested at various doses in SNU-449 cells. Cultured SNU-449 cells at a density of 10,000 cells per well were treated using free uptake with modified oligonucleotides diluted to concentrations described in the tables below. After approximately 48 hours, Yap1 mRNA levels were measured as previously described using the Human Yap1 primer-probe set RTS36584. Yap1 mRNA levels were normalized to total RNA content, as measured by RIBOGREEN®. Results are presented in the tables below as percent control of the amount of Yap1 mRNA relative to untreated control cells (% UTC). IC50s were calculated using a linear regression on a log/linear plot of the data in excel.

| Substance | % UTC (Yap1 mRNA) (31.3 nM) | % UTC (Yap1 mRNA) (125.0 nM) | % UTC (Yap1 mRNA) (500.0 nM) | % UTC (Yap1 mRNA) (2000.00 nM) | IC50 |
| --- | --- | --- | --- | --- | --- |
| 1197213 (kT*kG*kT*dA*dT*dG*dT*d[5mC]*dA*dG*dA*dA*dG*kA*kG*kT; antisense) [compound 1197213] | 87 % UTC | 46 % UTC | 14 % UTC | 2 % UTC | 100 nM |
| 1198902 (kT*kT*dA*dG*dA*dG*dT*dA*dT*dG*dT*kG*dG*k[5mC]*dA*kA; antisense) [compound 1198902] | 74 % UTC | 46 % UTC | 22 % UTC | 10 % UTC | 100 nM |
| 1198857 (kT*k[5mC]*dT*dT*dA*dT*dA*dT*dG*dG*dT*kT*eT*kT*eG*kT) [compound 1198857] | 78 % UTC | 44 % UTC | 13 % UTC | 4 % UTC | 100 nM |
| 1198554 (kT*kT*kA*dG*dA*dG*dT*dA*dT*dG*dT*dG*kG*k[5mC]*kA*eA; antisense) [compound 1198554] | 72 % UTC | 46 % UTC | 22 % UTC | 8 % UTC | 100 nM |
| 1198504 (kT*k[5mC]*dA*dG*dA*dT*dT*dT*dA*dG*dG*eA*kT*eG*k[5mC]*eA; antisense) [compound 1198504] | 77 % UTC | 46 % UTC | 27 % UTC | 24 % UTC | 100 nM |
| 1197223 (kT*kA*kA*dG*dT*dA*dA*dG*dG*dT*dT*dT*d[5mC]*k[5mC]*k[5mC]*kA; antisense) [compound 1197223] | 88 % UTC | 55 % UTC | 25 % UTC | 8 % UTC | 200 nM |
| 1198787 (kA*eG*kT*dG*dT*dA*dT*dG*dT*d[5mC]*dA*dG*eA*eA*kG*kA; antisense) [compound 1198787] | 68 % UTC | 21 % UTC | 6 % UTC | 1 % UTC | 50 nM |
| 1198294 (kA*kG*kA*dG*dT*dA*dT*dG*dT*dG*dG*d[5mC]*kA*eA*kT*eA; antisense) [compound 1198294] | 59 % UTC | 33 % UTC | 14 % UTC | 5 % UTC | 50 nM |
| 1197177 (kA*kT*kT*dG*dT*d[5mC]*dT*d[5mC]*dA*dT*dG*d[5mC]*d[5mC]*kT*kT*kA; antisense) [compound 1197177] | 56 % UTC | 29 % UTC | 8 % UTC | 2 % UTC | 30 nM |
| 1198380 (kA*dG*dA*dG*dT*dA*dT*dG*dT*dG*dG*k[5mC]*eA*kA*eT*kA; antisense) [compound 1198380] | 72 % UTC | 55 % UTC | 27 % UTC | 11 % UTC | 100 nM |
| 1200796 (kT*kT*kA*dG*dA*mG*dT*dA*dT*dG*dT*dG*dG*k[5mC]*kA*kA; antisense) [compound 1200796] | 69 % UTC | 47 % UTC | 25 % UTC | 12 % UTC | 100 nM |
| 1200820 (kG*kG*kA*dA*dG*mA*dT*d[5mC]*dT*dG*dA*dA*dA*k[5mC]*kT*k[5mC]; antisense) [compound 1200820] | 104 % UTC | 69 % UTC | 36 % UTC | 17 % UTC | 300 nM |
| 1198524 (kT*kG*dT*dA*dT*dG*dT*d[5mC]*dA*dG*dA*eA*kG*eA*kG*eT; antisense) [compound 1198524] | 50 % UTC | 32 % UTC | 9 % UTC | 3 % UTC | < 30 nM |
| 1198960 (kA*kA*dG*dT*dG*dT*dA*dT*dG*dT*d[5mC]*kA*dG*kA*dA*kG; antisense) [compound 1198960] | 77 % UTC | 35 % UTC | 8 % UTC | 2 % UTC | 100 nM |
| 1198213 (kA*kT*dA*dT*dT*dA*dG*dA*dG*dT*dA*eT*eG*eT*kG*kG) [compound 1198213] | 91 % UTC | 33 % UTC | 11 % UTC | 3 % UTC | 100 nM |
| 1197193 (AGGATGCATGGTTTTT; chemistry not fully specified) [compound 1197193] | 85 % UTC | 52 % UTC | 24 % UTC | 11 % UTC | 200 nM |

Reference: US11214803B2, “Modulators of YAP1 expression” (Ionis Pharmaceuticals, Inc., priority 2019, dated 2022)
